# Read-outs that look alike come from different tables or passages of the source.
# Experiments:
# spores of C. sporogenes = assay: AOAC Sporicidal Test, C. sporogenes spores; format: cell-based; settings: pH 4, 20° C., 24 hours
# Description: (§1) In this example, a series of aqueous solutions containing from 2 to 0.5% of 2-butenedial, buffered at pH 4 with monopotassium hydrogen phosphate and acetic acid, were tested according to methods described in the AOAC Sporicidal Test to determine their effectiveness against spores of B. subtilis and C. sporogenes at 20° C. in 24 hours.
# spores of B. subtilis = assay: AOAC Sporicidal Test, B. subtilis spores; format: cell-based; settings: pH 4, 20° C., 24 hours
# Description: as §1
# Solubility in water = format: physicochemical
# Source text: 2-Butenedial is present in the composition, at use concentration, in amounts of between 0.5% and 1.0% by weight. Higher concentrations, e.g., up to 2%, or lower concentrations, e.g., above 0.25%, could be used if desired. The preferred concentration of 2-butenedial at use dilution is about 0.5% by weight. Higher concentrations of 2-butenedial may be used for shipping the composition to the point of use and the composition could then be diluted with water to the desired use concentration. The limit on the amount of 2-butenedial used in the concentrate composition is a function of the solubility of 2-butenedial in water, which is about 20% w/w. To achieve compositions with greater than 20% w/w, a water miscible co-solvent can be used. Typically, suitable co-solvents include low molecular weight alcohols and glycols. The optimum parameters for any given quantity to be sterilized or disinfected can be determined by routine experimentation using varying concentrations, treatment times, and temperatures as described herein.
# [1] = Storage stability of solutions at 0-5° C., pH 4; format: physicochemical; settings: pH 4, 0-5° C.
# Description: Solutions containing about 2.7% of 2-butenedial buffered to pH 4 were stored at 0-5° C. for about 3 months to determine the effect of storage temperature on the stability of the solutions.
# [2] = Use life stability at 25° C. for 14 days, effect of pH; format: physicochemical
# Description: Solutions containing 2% of 2-butenedial buffered to pH 2.5, 3.5 and 4.5 were aged at 25° C. for 14 days to determine the effect of pH on use life stability.
# Mycobacterium bovis BCG = format: cell-based; settings: for time within which biocidal: 0.5% 2-butenedial
# [3] = Storage stability of solutions at 25° C., effect of pH; format: physicochemical
# Description: Solutions containing about 3% of 2-butenedial buffered to pH 3, 5 and 7 were stored at 25° C. for about 3 months to determine the effect of pH on the stability of the solutions.
# [4] = 0.5% (w/w) butenedial, penicylinders
# [5] = 1% (w/w) butenedial, penicylinders
# [6] = 2% (w/w) butenedial, penicylinders
smiles,measurement,setting,value
"O=CC=CC=O [2-butenedial, 2-Butenedial]",Total No. of Positives(Failures/Total No. of Tests),spores of C. sporogenes; [4],1/30
same,Total No. of Positives(Failures/Total No. of Tests),"spores of C. sporogenes; 0.5% (w/w) butenedial, sutures",0/30
same,Total No. of Positives(Failures/Total No. of Tests),spores of C. sporogenes; [5],0/30
same,Total No. of Positives(Failures/Total No. of Tests),"spores of C. sporogenes; 1% (w/w) butenedial, sutures",0/30
same,Total No. of Positives(Failures/Total No. of Tests),spores of C. sporogenes; [6],0/30
same,Total No. of Positives(Failures/Total No. of Tests),"spores of C. sporogenes; 2% (w/w) butenedial, sutures",0/30
same,minimum effective concentration against spores,spores of C. sporogenes,about 0.5%
same,Total No. of Positives(Failures/Total No. of Tests),spores of B. subtilis; [4],0/30
same,Total No. of Positives(Failures/Total No. of Tests),"spores of B. subtilis; 0.5% (w/w) butenedial, sutures",0/30
same,Total No. of Positives(Failures/Total No. of Tests),spores of B. subtilis; [5],0/30
same,Total No. of Positives(Failures/Total No. of Tests),"spores of B. subtilis; 1% (w/w) butenedial, sutures",0/30
same,Total No. of Positives(Failures/Total No. of Tests),spores of B. subtilis; [6],0/30
same,Total No. of Positives(Failures/Total No. of Tests),"spores of B. subtilis; 2% (w/w) butenedial, sutures",0/30
same,minimum effective concentration against spores,spores of B. subtilis,about 0.5%
same,solubility in water,Solubility in water,about 20 % w/w
same,% Butenedial,[1]; storage time 0 mo,2.72%
same,% Butenedial,[1]; storage time 1 mo,2.67%
same,% Butenedial,[1]; storage time 2 mo,2.68%
same,% Butenedial,[1]; storage time 3 mo,2.54%
same,acceptable use life stability,"[2]; 25° C., pH 2.5, 3.5 and 4.5, minimum effective concentration 0.5%",at least 14 days
same,Percent (%) Butenedial,"[2]; pH 2.5, 25° C., use life 0 days",2.0%
same,Percent (%) Butenedial,"[2]; pH 2.5, 25° C., use life 2 days",1.94%
same,Percent (%) Butenedial,"[2]; pH 2.5, 25° C., use life 4 days",1.84%
same,Percent (%) Butenedial,"[2]; pH 2.5, 25° C., use life 7 days",1.78%
same,Percent (%) Butenedial,"[2]; pH 2.5, 25° C., use life 10 days",1.7%
same,Percent (%) Butenedial,"[2]; pH 2.5, 25° C., use life 14 days",1.6%
same,Percent (%) Butenedial,"[2]; pH 3.5, 25° C., use life 0 days",2.0%
same,Percent (%) Butenedial,"[2]; pH 3.5, 25° C., use life 2 days",1.92%
same,Percent (%) Butenedial,"[2]; pH 3.5, 25° C., use life 4 days",1.76%
same,Percent (%) Butenedial,"[2]; pH 3.5, 25° C., use life 7 days",1.6%
same,Percent (%) Butenedial,"[2]; pH 3.5, 25° C., use life 10 days",1.5%
same,Percent (%) Butenedial,"[2]; pH 3.5, 25° C., use life 14 days",1.4%
same,Percent (%) Butenedial,"[2]; pH 4.5, 25° C., use life 0 days",2.0%
same,Percent (%) Butenedial,"[2]; pH 4.5, 25° C., use life 2 days",1.73%
same,Percent (%) Butenedial,"[2]; pH 4.5, 25° C., use life 4 days",1.5%
same,Percent (%) Butenedial,"[2]; pH 4.5, 25° C., use life 7 days",1.32%
same,Percent (%) Butenedial,"[2]; pH 4.5, 25° C., use life 10 days",1.0%
same,Percent (%) Butenedial,"[2]; pH 4.5, 25° C., use life 14 days",0.8%
same,time within which biocidal,"Mycobacterium bovis BCG; pH 4, 20° C.",≤ 30 min
same,time within which biocidal,"Mycobacterium bovis BCG; pH 5.5, 20° C.",≤ 30 min
same,Percent Reduction of Organisms,"Mycobacterium bovis BCG; 0.5% (w/w) butenedial, pH 4, 20° C., 5 min",>99.78%
same,Percent Reduction of Organisms,"Mycobacterium bovis BCG; 0.5% (w/w) butenedial, pH 4, 20° C., 15 min",>99.996%
same,Percent Reduction of Organisms,"Mycobacterium bovis BCG; 0.5% (w/w) butenedial, pH 4, 20° C., 30 min",>100%
same,Percent Reduction of Organisms,"Mycobacterium bovis BCG; 0.5% (w/w) butenedial, pH 4, 20° C., 60 min",>100%
same,Percent Reduction of Organisms,"Mycobacterium bovis BCG; 0.5% (w/w) butenedial, pH 5.5, 20° C., 5 min",83.5%
same,Percent Reduction of Organisms,"Mycobacterium bovis BCG; 0.5% (w/w) butenedial, pH 5.5, 20° C., 15 min",>99.996%
same,Percent Reduction of Organisms,"Mycobacterium bovis BCG; 0.5% (w/w) butenedial, pH 5.5, 20° C., 30 min",>100%
same,Percent Reduction of Organisms,"Mycobacterium bovis BCG; 0.5% (w/w) butenedial, pH 5.5, 20° C., 60 min",>100%
same,Percent Reduction of Organisms,"Mycobacterium bovis BCG; 1% (w/w) butenedial, pH 4, 20° C., 5 min",>99.97%
same,Percent Reduction of Organisms,"Mycobacterium bovis BCG; 1% (w/w) butenedial, pH 4, 20° C., 15 min",>99.997%
same,Percent Reduction of Organisms,"Mycobacterium bovis BCG; 1% (w/w) butenedial, pH 4, 20° C., 30 min",>100%
same,Percent Reduction of Organisms,"Mycobacterium bovis BCG; 1% (w/w) butenedial, pH 4, 20° C., 60 min",>100%
same,Percent Reduction of Organisms,"Mycobacterium bovis BCG; 1% (w/w) butenedial, pH 5.5, 20° C., 5 min",94.5%
same,Percent Reduction of Organisms,"Mycobacterium bovis BCG; 1% (w/w) butenedial, pH 5.5, 20° C., 15 min",>99.997%
same,Percent Reduction of Organisms,"Mycobacterium bovis BCG; 1% (w/w) butenedial, pH 5.5, 20° C., 30 min",>100%
same,Percent Reduction of Organisms,"Mycobacterium bovis BCG; 1% (w/w) butenedial, pH 5.5, 20° C., 60 min",>100%
same,Percent Reduction of Organisms,"Mycobacterium bovis BCG; 2% (w/w) butenedial, pH 4, 20° C., 5 min",>99.98%
same,Percent Reduction of Organisms,"Mycobacterium bovis BCG; 2% (w/w) butenedial, pH 4, 20° C., 15 min",>99.998%
same,Percent Reduction of Organisms,"Mycobacterium bovis BCG; 2% (w/w) butenedial, pH 4, 20° C., 30 min",>100%
same,Percent Reduction of Organisms,"Mycobacterium bovis BCG; 2% (w/w) butenedial, pH 4, 20° C., 60 min",>100%
same,Percent Reduction of Organisms,"Mycobacterium bovis BCG; 2% (w/w) butenedial, pH 5.5, 20° C., 5 min",95%
same,Percent Reduction of Organisms,"Mycobacterium bovis BCG; 2% (w/w) butenedial, pH 5.5, 20° C., 15 min",99.95%
same,Percent Reduction of Organisms,"Mycobacterium bovis BCG; 2% (w/w) butenedial, pH 5.5, 20° C., 30 min",>100%
same,Percent Reduction of Organisms,"Mycobacterium bovis BCG; 2% (w/w) butenedial, pH 5.5, 20° C., 60 min",>100%
same,minimum effective concentration,Mycobacterium bovis BCG; based on results on spores and tubercular bacteria,0.5%
same,Percent (%) Butenedial,"[3]; pH 3, 25° C., storage time 0 months",2.94%
same,Percent (%) Butenedial,"[3]; pH 3, 25° C., storage time 1 month",2.4%
same,Percent (%) Butenedial,"[3]; pH 3, 25° C., storage time 2 months",1.77%
same,Percent (%) Butenedial,"[3]; pH 3, 25° C., storage time 3 months",0.95%
same,Percent (%) Butenedial,"[3]; pH 5, 25° C., storage time 0 months",2.94%
same,Percent (%) Butenedial,"[3]; pH 5, 25° C., storage time 1 month",1.06%
same,Percent (%) Butenedial,"[3]; pH 5, 25° C., storage time 2 months",0.55%
same,Percent (%) Butenedial,"[3]; pH 5, 25° C., storage time 3 months",0.13%
same,Percent (%) Butenedial,"[3]; pH 7, 25° C., storage time 0 months",2.94%
same,Percent (%) Butenedial,"[3]; pH 7, 25° C., storage time 1 month",0.12%
same,Percent (%) Butenedial,"[3]; pH 7, 25° C., storage time 2 months",0.09%
same,Percent (%) Butenedial,"[3]; pH 7, 25° C., storage time 3 months",0.06%
same,acceptable storage stability,"[3]; stored as one component at pH 3, 25° C.",about 3 months

# — patent publication US20050215649A1, “Conjugated alphatic dialdehyde disinfecting and sterilizing compositions and methods of using the same” (priority 2004, published 2005)
